Biological target: T1, CDK2/cyclin A (Homo sapiens, UniProt P24941)
T1 construct: purchased Eurofins Scientific
Assay: CDK protein inhibition, KINOMEscan (Eurofins), CDK2/cyclin A
Type: binding
Conditions: 1 μM

First: Cc1cccc(C(=O)NC2CC(n3cnc4c(NCC5CCN(C(=O)CCCCCNc6cccc7c6C(=O)N([C@@H]6CCC(=O)NC6=O)C7=O)CC5)ncnc43)C2)n1 (some centres unmarked) [Compound 66, N-((1r,3r)-3-(6-(((1-(6-((2-(2,6-dioxopiperidin-3-yl)-1,3-dioxoisoindolin-4-yl)amino)hexanoyl)piperidin-4-yl)methyl)amino)-9H-purin-9-yl)cyclobutyl)-6-methylpicolinamide]
Second: Cc1cccc(C(=O)NC2CC(n3cnc4c(NCC5CCN(C(=O)CCCCCNC(=O)CNc6cccc7c6C(=O)N([C@@H]6CCC(=O)NC6=O)C7=O)CC5)ncnc43)C2)n1 (some centres unmarked) [Compound 62, N-((1r,3r)-3-(6-(((1-(6-(2-((2-(2,6-dioxopiperidin-3-yl)-1,3-dioxoisoindolin-4-yl)amino)acetamido)hexanoyl)piperidin-4-yl)methyl)amino)-9H-purin-9-yl)cyclobutyl)-6-methylpicolinamide]
The “CDK2/cyclin A inhibition (%) (at concentration of 1 μM)” value (from here on “CDK2/cyclin A inhibition (%)”) of the first is lower: 78% for the first, 89% for the second.

Going from `Cc1cccc(C(=O)NC2CC(n3cnc4c(NCC5CCN(C(=O)CCCCCNC(=O)COc6ccc7c(c6)C(=O)N([C@@H]6CCC(=O)NC6=O)C7=O)CC5)ncnc43)C2)n1` (some centres unmarked) [Compound 63, N-((1r,3r)-3-(6-(((1-(6-(2-((2-(2,6-dioxopiperidin-3-yl)-1,3-dioxoisoindolin-5-yl)oxy)acetamido)hexanoyl)piperidin-4-yl)methyl)amino)-9H-purin-9-yl)cyclobutyl)-6-methylpicolinamide] to `Cc1cccc(C(=O)NC2CC(n3cnc4c(NC5CCN(C(=O)CCCCCNC(=O)COc6ccc7c(c6)C(=O)N([C@@H]6CCC(=O)NC6=O)C7=O)CC5)ncnc43)C2)n1` (some centres unmarked) [Compound 3, N-((1r,3r)-3-(6-((1-(6-(2-((2-(2,6-dioxopiperidin-3-yl)-1,3-dioxoisoindolin-5-yl)oxy)acetamido)hexanoyl)piperidin-4-yl)amino)-9H-purin-9-yl)cyclobutyl)-6-methylpicolinamide], the “CDK2/cyclin A inhibition (%)” value rises from 83% to 84%.

Compared with `Cc1cccc(C(=O)NC2CC(n3cnc4c(NC5CCN(C(=O)COCCOCCNC(=O)COc6cccc7c6C(=O)N([C@H]6CCC(=O)NC6=O)C7=O)CC5)ncnc43)C2)n1` (some centres unmarked) [Compound 8, N-((1s,3s)-3-(6-((1-(2-(2-(2-(2-((2-(2,6-dioxopiperidin-3-yl)-1,3-dioxoisoindolin-4-yl)oxy)acetamido)ethoxy)ethoxy)acetyl)piperidin-4-yl)amino)-9H-purin-9-yl)cyclobutyl)-6-methylpicolinamide], `Cc1cccc(C(=O)NC2CC(n3cnc4c(NC5CCN(C(=O)COCCOCCNC(=O)CNc6cccc7c6C(=O)N([C@H]6CCC(=O)NC6=O)C7=O)CC5)ncnc43)C2)n1` (some centres unmarked) [Compound 10, N-((1s,3s)-3-(6-((1-(2-(2-(2-(2-((2-(2,6-dioxopiperidin-3-yl)-1,3-dioxoisoindolin-4-yl)amino)acetamido)ethoxy)ethoxy)acetyl)piperidin-4-yl)amino)-9H-purin-9-yl)cyclobutyl)-6-methylpicolinamide] is higher in “CDK2/cyclin A inhibition (%)” value: 89% for the first, 90% for the second.

First: Cc1cccc(C(=O)NC2CC(n3cnc4c(NC5CCN(C(=O)COCCOCCNc6ccc7c(c6)C(=O)N([C@H]6CCC(=O)NC6=O)C7=O)CC5)ncnc43)C2)n1 (some centres unmarked) [Compound 11, N-((1s,3s)-3-(6-((1-(2-(2-(2-((2-(2,6-dioxopiperidin-3-yl)-1,3-dioxoisoindolin-5-yl)amino)ethoxy)ethoxy)acetyl)piperidin-4-yl)amino)-9H-purin-9-yl)cyclobutyl)-6-methylpicolinamide]
Second: Cc1cccc(C(=O)NC2CC(n3cnc4c(NC5CCN(C(=O)COCCOCCNC(=O)CNc6ccc7c(c6)C(=O)N([C@H]6CCC(=O)NC6=O)C7=O)CC5)ncnc43)C2)n1 (some centres unmarked) [Compound 9, N-((1s,3s)-3-(6-((1-(2-(2-(2-(2-((2-(2,6-dioxopiperidin-3-yl)-1,3-dioxoisoindolin-5-yl)amino)acetamido)ethoxy)ethoxy)acetyl)piperidin-4-yl)amino)-9H-purin-9-yl)cyclobutyl)-6-methylpicolinamide]
The “CDK2/cyclin A inhibition (%)” value of the first is lower: 78% for the first, 92% for the second.

Compared with `Cc1cccc(C(=O)NC2CC(n3cnc4c(NC5CCN(C(=O)COCCOCCNC(=O)COc6ccc7c(c6)C(=O)N([C@H]6CCC(=O)NC6=O)C7=O)CC5)ncnc43)C2)n1` (some centres unmarked) [Compound 7, N-((1s,3s)-3-(6-((1-(2-(2-(2-(2-((2-(2,6-dioxopiperidin-3-yl)-1,3-dioxoisoindolin-5-yl)oxy)acetamido)ethoxy)ethoxy)acetyl)piperidin-4-yl)amino)-9H-purin-9-yl)cyclobutyl)-6-methylpicolinamide], `Cc1cccc(C(=O)NC2CC(n3cnc4c(NC5CCN(C(=O)CCCCCNC(=O)COc6cccc7c6C(=O)N([C@@H]6CCC(=O)NC6=O)C7=O)CC5)ncnc43)C2)n1` (some centres unmarked) [Compound 4, N-((1r,3r)-3-(6-((1-(6-(2-((2-(2,6-dioxopiperidin-3-yl)-1,3-dioxoisoindolin-4-yl)oxy)acetamido)hexanoyl)piperidin-4-yl)amino)-9H-purin-9-yl)cyclobutyl)-6-methylpicolinamide] is lower in “CDK2/cyclin A inhibition (%)” value: 94% for the first, 84% for the second.

Compared with `Cc1cccc(C(=O)NC2CC(n3cnc4c(NC5CCN(C(=O)CCCCCNC(=O)CNc6cccc7c6C(=O)N([C@@H]6CCC(=O)NC6=O)C7=O)CC5)ncnc43)C2)n1` (some centres unmarked) [Compound 1, N-((1r,3r)-3-(6-((1-(6-(2-((2-(2,6-dioxopiperidin-3-yl)-1,3-dioxoisoindolin-4-yl)amino)acetamido)hexanoyl)piperidin-4-yl)amino)-9H-purin-9-yl)cyclobutyl)-6-methylpicolinamide], `Cc1cccc(C(=O)NC2CC(n3cnc4c(NCC5CCN(C(=O)CCCCCNC(=O)CNc6cccc7c6C(=O)N([C@@H]6CCC(=O)NC6=O)C7=O)CC5)ncnc43)C2)n1` (some centres unmarked) [Compound 2, N-((1r,3r)-3-(6-(((1-(6-(2-((2-(2,6-dioxopiperidin-3-yl)-1,3-dioxoisoindolin-4-yl)amino)acetamido)hexanoyl)piperidin-4-yl)methyl)amino)-9H-purin-9-yl)cyclobutyl)-6-methylpicolinamide] is higher in “CDK2/cyclin A inhibition (%)” value: 77% for the first, 84% for the second.

Going from `Cc1cccc(C(=O)NC2CC(n3cnc4c(NC5CCN(C(=O)CCCCCNc6ccc7c(c6)C(=O)N([C@@H]6CCC(=O)NC6=O)C7=O)CC5)ncnc43)C2)n1` (some centres unmarked) [Compound 5, N-((1r,3r)-3-(6-((1-(6-((2-(2,6-dioxopiperidin-3-yl)-1,3-dioxoisoindolin-5-yl)amino)hexanoyl)piperidin-4-yl)amino)-9H-purin-9-yl)cyclobutyl)-6-methylpicolinamide] to `Cc1cccc(C(=O)NC2CC(n3cnc4c(NCC5CCN(C(=O)CCCCCNC(=O)COc6cccc7c6C(=O)N([C@@H]6CCC(=O)NC6=O)C7=O)CC5)ncnc43)C2)n1` (some centres unmarked) [Compound 64, N-((1r,3r)-3-(6-(((1-(6-(2-((2-(2,6-dioxopiperidin-3-yl)-1,3-dioxoisoindolin-4-yl)oxy)acetamido)hexanoyl)piperidin-4-yl)methyl)amino)-9H-purin-9-yl)cyclobutyl)-6-methylpicolinamide], the “CDK2/cyclin A inhibition (%)” value falls from 91% to 85%.
